US12372533B2, “Identification of immunogenic mutant peptides using genomic, transcriptomic and proteomic information” (Genentech, Inc., priority 2014, dated 2025)
Where a SMILES comes first, the peptide text is derived from it.

Columns and labels:
Format in all cases: in vivo, mouse
MC-38 tumors = test: Peptide-specific CD8 tumor-infiltrating cells (TILs) in MC-38 tumors, dextramer staining; conditions: for peptide-specific CD8 T cells in the tumor bed: FIG. 4B
Excerpt: (§1) The immunogenicity of these mutated peptides was confirmed in the context of the tumor by analyzing tumor-infiltrating cells (TILs).
C57BL/6 mice were implanted subcutaneously on the right flank with 1×10^5 MC-38 tumor cells. The whole tumor was isolated and digested with collagenase and DNAase to isolate TILs. TILs were stained with dextramers (as described above) followed by antibodies against CD45, Thy1.2, CD4, CD8 (BD Biosciences), PD-1 (eBiosciences) and TIM-3 (R&D Systems). Live/dead stain was used to gate on live cells.

wild type C57BL/6 mice = test: Immunization of mice with long peptides plus adjuvant, CD8 T cell response by MHCI/peptide-specific dextramers; conditions: long peptides encoding the mutated epitopes plus adjuvant, day 0 and day 14, compared to adjuvant alone; FIG. 4A
TRAMP-C1 tumors = test: Peptide-specific CD8 tumor-infiltrating cells in syngeneic TRAMP-C1 tumors
Excerpt: as §1

Row | Compound | peptide-specific CD8 T cells in the tumor bed (MC-38 tumors) | CD8 T cell response (wild type C57BL/6 mice) | relative abundance of peptide-specific CD8 T cells among Reps1, Adpgk and Dpagt1 (MC-38 tumors) | Adpgk-specific CD8 T cells in tumor (TRAMP-C1 tumors)
1 | SIIVFNLL [Dpagt1, mutant peptide presented on MHCI (H-2Kb) in the MC-38 cell line] | enriched in the tumor bed | weak CD8 T cells response | – | –
2 | CC(C)C[C@H](NC(=O)[C@@H](NC(=O)[C@@H](NC(=O)[C@H](CC(=O)O)NC(=O)[C@H](CC(N)=O)NC(=O)[C@H](C)NC(=O)[C@H](CC(C)C)NC(=O)[C@H](CCC(N)=O)NC(=O)[C@H](C)N)C(C)C)C(C)C)C(=O)O [Reps1, AQLANDVVL] (H-AQLANDVVL-OH; N-terminus and C-terminus assumed) | enriched in the tumor bed | strong CD8 T cell responses | – | –
3 | ASMTNMELM [Adpgk, mutant peptide presented on MHCI (H-2Db) in the MC-38 cell line] | enriched in the tumor bed | strong CD8 T cell responses | most abundant of the three | no Adpgk-specific CD8 T cells were detected
